Like-named read-outs stand apart in the source and are kept apart here.
Tests used:
[1] = system: TS-negative FSthy21 cells transfected with I108A mutant human TS cDNA; test: Growth inhibition assay (alamar Blue), I108A transfectants; conditions: for Ratio of IC50 values for mutant/wt cells: AG337
Method: (§3) The mouse TS-negative FSthy21 cells were used as the host for DNA transfections. This cell line, which is a TS-deficient derivative of mouse FM3A cells, was routinely maintained in MEM medium supplemented with 10% fetal bovine serum and 10×10^−5 M thymidine. Transfections were performed by DOTAP, using 10 μg of DNA/culture. Four days after transfection, cells were placed in selective medium, which contain no thymidine and reduced folate. Colonies having the ability to grow in the absence of thymidine were pooled and propagated as a mass culture.
(§4) Logarithmically growing suspension mouse TS-20 negative FSthy21 cells transfected with wild-type or variant human TS cDNA were seeded in 96-well plates at 1,000 cells/well in 180 μl of complete medium. […] Cell viability was measured by the alamar Blue™ assay. This method incorporates an oxidation-reduction (REDOX) indicator that both fluoresces and changes color in response to chemical reduction of growth medium resulting from cell growth. To above 96-well cultured cells, 25 μl of Alamar Blue (Alamar, Sacramento, Calif.) (10% of incubation volume) were added according to the manufacturer's instructions. The culture 96-well plates were then incubated at 37° C. for 4 hours. Viable cells induce chemical reduction of the media which results in a change in REDOX color from blue to red. The intensity of red color (and fluoresces) is proportional to the viable cells. After incubation, fluorescence is was read at 530-560 nm excitation wavelength and 590 nm emission wavelength by an automated plate reader (model EL340; Bio-Tek). Drug concentrations needed to reduce cell growth by 50% (IC50 values) were determined graphically by plotting of cell growth verses inhibitor concentration.
(§5) The effect of three antifolates and FdUrd on the growth characteristics of transfectants that stably express various TS proteins was evaluated by cytotoxicity studies. Cell growth was measured by the alamar blue assay. IC50 values were calculated as the concentration of inhibitor required to inhibit growth by 50% compared to wild-type transfected cells grown under identical conditions.

[2] = system: TS-negative FSthy21 cells transfected with F225W mutant human TS cDNA; format: cell-based, mouse
Normal Bone Marrow cells = test: CFU-GM assay, Normal Bone Marrow (retroviral vector study); format: cell-based, murine; conditions: 10 days
Text: (§1) The following tables 15-17 summarize additional proof that these mutants confer resistance to chemotherapeutic agents by increasing the number of drug resistant CFU-GM colonies formed by murine bone marrow cells infected with retroviral vectors containing these mutant TS cDNAs.

[3] = system: murine bone marrow cells infected with Wt TS vector; test: CFU-GM assay, marrow infected with Wt TS retroviral vector; format: cell-based; conditions: 10 days
[4] = system: murine bone marrow cells infected with G52S mut-TS vector; test: CFU-GM assay, marrow infected with G52S mut-TS retroviral vector; format: cell-based; conditions: 10 days
Text: as §1

[5] = system: TS-negative FSthy21 cells transfected with L221A mutant human TS cDNA; format: cell-based, mouse; conditions: AG337; L221A/clone (2) vs wild-type clone (1)
[6] = system: TS-negative FSthy21 cells transfected with I108F mutant human TS cDNA; format: cell-based, mouse; conditions: AG337; 1108F/clone (2) vs wild-type clone (2)
[7] = system: TS-negative FSthy21 cells transfected with K47E mutant human TS cDNA; format: cell-based, mouse; conditions: AG337; K47E/clone (2) vs wild-type clone (1)
[8] = system: in situ TS activity in AG337-resistant HT1080 cell lines; test: Whole cell TS assay (tritium release); format: cell-based, human; conditions: resistant lines HT1080/1b, 2b, 1c, 2c, 1d, 2d, 6e at minimal AG337 concentration giving no detectable TS activity in HT1080
Method: Resistance to TS inhibitors was evaluated using the whole cell TS assay for several AG337-resistant sublines and parental cell line HT1080 as a control. […] For the absence of TS inhibitors, cells convert 2′-[5-^3H]-deoxyuridine to dTMP, releasing ^3H2O into the medium. The rate of dTMP synthesis in the presence or absence of drug was assessed at 0, 15, 30, 40 minutes, by measurement of [3H]2O release by charcoal-TCA (trichloroacetic acid) separation of ^3H2O from nucleosides and nucleotides. Radioactivity was quantitated using a liquid scintillation counter (Beckman LS5).
The effect of AG337 on whole cell in situ TS activity was measured by the tritium release assay in HT1080 cells and several resistant cell lines with putative mutations. The cell lines HT1080/1b, HT1080/2b, HT1080/1c, HT1080/2c, HT1080/1d, HT1080/2d and HT1080/6e were resistant to AG337. […] This method provided a rapid qualitative confirmation of whether or not a cell line is resistant to AG337.

[9] = system: TS-negative FSthy21 cells transfected with D49G mutant human TS cDNA; format: cell-based, mouse
[10] = system: TS-negative FSthy21 cells transfected with F225L mutant human TS cDNA; format: cell-based, mouse; conditions: AG337; F225L/clone (3) vs wild-type clone (1)
[11] = system: TS-negative FSthy21 cells transfected with L221I mutant human TS cDNA; format: cell-based, mouse; conditions: AG337; L221I/clone (1) vs wild-type clone (1)
HT1080 cells = test: AG337 sensitivity of HT1080 (colony formation); format: cell-based, human; conditions: drug cytotoxicity assay
Method: The optimum concentration of AG337 for selection of resistant clones was determined as follows. The human fibrosarcoma HT1080 cells were seeded into 6-well plates at 100 cells per well and incubated at 37° C. with complete medium. Various concentrations of AG337 were added after 24 hours. Drug-containing medium was changed every 4 days and surviving colonies were counted after 14 days of drug treatment.

[12] = biological target: TS-negative FSthy21 cells transfected with I108A mutant human TS cDNA (Homo sapiens, UniProt P04818, P2L/I108A, cells depend on it); test: Growth inhibition assay (alamar Blue), I108A transfectants; conditions: read-out: IC50 values, AG337, 7-day exposure
Sequence of TS-negative FSthy21 cells transfected with I108A mutant human TS cDNA (Homo sapiens, UniProt P04818, P2L/I108A, cells depend on it) (P04818 whole entry P2L/I108A): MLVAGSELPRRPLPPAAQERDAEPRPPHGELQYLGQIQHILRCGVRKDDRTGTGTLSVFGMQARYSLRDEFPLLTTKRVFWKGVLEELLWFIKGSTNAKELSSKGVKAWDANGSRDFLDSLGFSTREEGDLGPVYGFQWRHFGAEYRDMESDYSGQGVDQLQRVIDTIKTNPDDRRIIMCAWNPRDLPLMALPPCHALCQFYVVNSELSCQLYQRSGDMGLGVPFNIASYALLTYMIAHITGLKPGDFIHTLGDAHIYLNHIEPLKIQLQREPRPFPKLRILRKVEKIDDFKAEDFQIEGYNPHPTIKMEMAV
Method: as §3, §4, §5

[13] = system: mouse bone marrow cells transfected with mutant TS (TS175); test: CFU-GM / HPPCFU-C assay, marrow transfected with plasmid TS175; format: cell-based
Method: (§2) DNA into Mouse Bone Marrow Progenitor Cells Twenty micrograms of plasmid DNA (TS161 or TS175) and ten micrograms of DOTAP were diluted to 100 μl with HBS buffer and incubated at room temperature for 10 minutes. The mixture was added to 2×10^6 mouse bone marrow cells suspended in 0.5 ml of IMDM medium (in a 35 mm culture dish). After a 4 hour incubation at 37° C., 2 ml of IMDM with 30% FBS was added to each dish and the incubation was continued for 24 hours. […] Transfected cells prepared as described above were distributed into 10×35 mm dishes (3×10^5 cells in […] IMDM media/dish). […] Drug was added at the indicated concentration to each dish and the cells were cultured at 37° C. (5% CO2) for 10-14 days.

[14] = system: TS-negative FSthy21 cells transfected with L221S mutant human TS cDNA; format: cell-based, mouse; conditions: AG337; L221S/clone (2) vs wild-type clone (1)
[15] = system: TS-negative FSthy21 cells transfected with F225Y mutant human TS cDNA; format: cell-based, mouse; conditions: AG337; F225Y/clone (1) vs wild-type clone (1)
[16] = system: TS-negative FSthy21 cells transfected with G52S mutant human TS cDNA; format: cell-based, mouse
[17] = system: mouse bone marrow cells (N.B.M.); test: CFU-GM / HPPCFU-C assay, N.B.M.; format: cell-based
[18] = system: mouse bone marrow cells transfected with wild type TS (TS161); test: CFU-GM / HPPCFU-C assay, marrow transfected with plasmid TS161; format: cell-based
Method: as §2

## Cc1nc2ccc3ccc(CNc4ccc5c(c4)CN([C@@H](CCC(=O)O)C(=O)O)C5=O)cc3c2c(=O)[nH]1
[1]; I108A transfectants vs wild-type transfectants
  resistance, IC50 values greater than wild-type transfectants: 6 fold
[2]; F225W transfectants vs wild-type transfectants
  resistance, IC50 values greater than wild-type transfectants: 22 fold

## O=c1[nH]cc(F)c(=O)[nH]1 [5-FU, 5-fluorouracil]
Normal Bone Marrow cells; 10^−5 M 5-FU
  CFU-C: 0
Normal Bone Marrow cells; 10^−6 M 5-FU
  CFU-C: 16
  CFU-C, % in parentheses: 10%
  HPPCFU-C: 0
[3]; 10^−5 M 5-FU
  CFU-C: 0
[3]; 10^−6 M 5-FU
  CFU-C: 91
  CFU-C, % in parentheses: 54%
  HPPCFU-C: 6
  HPPCFU-C, % in parentheses: 14%
[4]; 10^−5 M 5-FU
  CFU-C: 10
  CFU-C, % in parentheses: 6%
[4]; 10^−6 M 5-FU
  CFU-C: 117
  CFU-C, % in parentheses: 72%
  HPPCFU-C: 21
  HPPCFU-C, % in parentheses: 40%

## Cc1ccc2nc(N)[nH]c(=O)c2c1Sc1ccncc1 [AG337]
[5]
  Ratio of IC50 values for mutant/wt cells: 5.5(1)
[6]
  Ratio of IC50 values for mutant/wt cells: 7.0(2)
[7]
  Ratio of IC50 values for mutant/wt cells: 5.0(1)
[8]
  TS activity in whole cells: not totally inhibited
[9]; AG337, D49G/clone (1) vs wild-type clone (1)
  Ratio of IC50 values for mutant/wt cells: 40(1)
[9]; D49G transfectants vs wild-type transfectants
  resistance, IC50 values greater than wild-type transfectants: 40 fold
[10]
  Ratio of IC50 values for mutant/wt cells: 1.0(1)
[11]
  Ratio of IC50 values for mutant/wt cells: 5.2(1)
HT1080 cells
  IC50: 2.1 µM
[12]; 1108A/clone (1) [175-1]
  GI50: 30.5 ± 3.7 µM
[12]; 1108A/clone (2) [175-2]
  GI50: 29 ± 2.5 µM
[12]; 1108A/clone (3) [175-3]
  GI50: 76.6 ± 2.8 µM
[1]; 1108A/clone (1) vs wild-type clone (2)
  Ratio of IC50 values for mutant/wt cells: 80(2)^2
[1]; 1108A/clone (2) vs wild-type clone (2)
  Ratio of IC50 values for mutant/wt cells: 76(2)
[1]; 1108A/clone (3) vs wild-type clone (2)
  Ratio of IC50 values for mutant/wt cells: 200(2)
[1]; clones 175-2 and 175-3
  biggest difference in IC50 values between clones: less than 3 fold
[13]; AG337 1 × 10^−7 M
  HPPCFU-C colonies: 8
  HPPCFU-C colonies, % in parentheses: 6%
[13]; AG337 1 × 10^−8 M
  CFU-GM colonies: 60
  CFU-GM colonies, % in parentheses: 42%
[13]; AG337 2 × 10^−7 M
  CFU-GM colonies: 12
  CFU-GM colonies, % in parentheses: 8%
[14]
  Ratio of IC50 values for mutant/wt cells: 4.5(1)
[2]; AG337, F225W/clone (2) vs wild-type clone (1)
  Ratio of IC50 values for mutant/wt cells: 1.0(1)
[15]
  Ratio of IC50 values for mutant/wt cells: 1.5(1)
[16]; AG337, G52S/clone (3) vs wild-type clone (1)
  Ratio of IC50 values for mutant/wt cells: 12(1)
[16]; G52S transfectants vs wild-type transfectants
  resistance, IC50 values greater than wild-type transfectants: 12 fold
[17]; AG337 1 × 10^−7 M
  HPPCFU-C colonies: 0
[17]; AG337 1 × 10^−8 M
  CFU-GM colonies: 10
  CFU-GM colonies, % in parentheses: 12%
[17]; AG337 2 × 10^−7 M
  CFU-GM colonies: 0
[18]; AG337 1 × 10^−7 M
  HPPCFU-C colonies: 0
[18]; AG337 1 × 10^−8 M
  CFU-GM colonies: 20
  CFU-GM colonies, % in parentheses: 19%
[18]; AG337 2 × 10^−7 M
  CFU-GM colonies: 0
